Test results from publication PMC11382352 (Drug development research, 2019).
Values after ≈ are worked out from the molar mass of the structure shown. Where two headings read alike, the source gives them in different places.

Tested on: Mycobacterium tuberculosis H37Rv
Experiment: Microtiter dilution MIC assay in GAST-Fe and 7H9-based media
Assay type: cell-based
Details: for MIC (Gast/Fe) Week 2: GAST-Fe medium pH 6.6, read after week 2; for MIC (Gast/Fe) Week 1: GAST-Fe medium pH 6.6, read after week 1; for MIC: Mycobacterium tuberculosis, H37RV

c1ccc(NCc2ccc(Oc3ccccn3)cc2)cc1 [Compound 2a, N-(4-(pyridin-2-yloxy)benzyl) aniline]
MIC (Gast/Fe) Week 2: 37 µM (≈ 10.2 µg/mL)

COc1cccc(NCc2ccc(Oc3ccccn3)cc2)c1 [Compound 2c, 3-methoxy-N-(4-(pyridin-2-yloxy)benzyl) aniline]
MIC (Gast/Fe) Week 2: 37 µM (≈ 11.3 µg/mL)

Cc1ccc(NCc2ccc(Oc3ccccn3)cc2)cc1 [Compound 2d, 4-methyl-N-(4-(pyridin-2-yloxy)benzyl) aniline]
MIC (Gast/Fe) Week 1: 22 µM (≈ 6.39 µg/mL)

Clc1ccc(NCc2ccc(Oc3ccccn3)cc2)cc1 [Compound 2g, 4-chloro-N-(4-(pyridin-2-yloxy)benzyl) aniline]
MIC (Gast/Fe) Week 2: 40 µM (≈ 12.4 µg/mL)

Clc1cccc(NCc2ccc(Oc3ccccn3)cc2)c1 [Compound 2h, 3-chloro-N-(4-(pyridin-2-yloxy)benzyl) aniline]
MIC (Gast/Fe) Week 2: 40 µM (≈ 12.4 µg/mL)

Clc1ccccc1NCc1ccc(Oc2ccccn2)cc1 [Compound 2i, 2-chloro-N-(4-(pyridin-2-yloxy)benzyl) aniline]
MIC (Gast/Fe) Week 1: 20 µM (≈ 6.22 µg/mL)
MIC (Gast/Fe) Week 2: 20 µM (≈ 6.22 µg/mL)

Fc1ccc(NCc2ccc(Oc3ccccn3)cc2)cc1 [Compound 2j, 4-fluoro-N-(4-(pyridin-2-yloxy)benzyl) aniline]
MIC (Gast/Fe) Week 2: 25 µM (≈ 7.36 µg/mL)

Brc1cccc(NCc2ccc(Oc3ccccn3)cc2)c1 [Compound 2m, 3-bromo-N-(4-(pyridin-2-yloxy)benzyl) aniline]
MIC (Gast/Fe) Week 2: 35 µM (≈ 12.4 µg/mL)

Oc1cc(Cl)ccc1Oc1ccc(Cl)cc1Cl [Triclosan, 2,4,4׳- trichloro- 2׳- hydroxy diphenyl ether, reference compound]
MIC (pH 6.6, read-out: MIC (Gast/Fe) Week 1): 43 µM (≈ 12.5 µg/mL)
MIC (pH 6.6, read-out: MIC (Gast/Fe) Week 2): 43 µM (≈ 12.5 µg/mL)
MIC (read-out: MIC (7H9/ADC/Tween) Week 1): 22 µM (≈ 6.37 µg/mL)
MIC (read-out: MIC (7H9/ADC/Tween) Week 2): 43 µM (≈ 12.5 µg/mL)
